# Experimental data reported in patent publication US20210353593A1 (Chinook Therapeutics, Inc., priority 2019, published 2021).
# “Also recorded” adds a separate entry of the source.
# System: primary human renal mesangial cells (HRMCs)
# Assay: Proliferation (BrdU) of primary human renal mesangial cells stimulated with IgA-containing immune complexes
# Format: cell-based
# Excerpt: Primary human mesangial cells in a culture were stimulated with pathogenic galactose deficient (Gd)-IgA containing immune complexes isolated from human IgA nephropathy patients.
# Specifically, pathogenic IgA-containing immune complexes were isolated from serum from either IgA nephropathy patients or age, gender and ethnicity-matched healthy individuals. Frozen serum was purchased from BioIVT and IgA-containing immune complexes were purified using jacalin affinity chromatography. […] Purified IgA-containing immune complexes were concentrated using a 100K Amicon filtration unit and the amount of total IgA and galactose-deficient IgA (Gd-IgA) in the immune complexes was measured by ELISA (ThermoFisher and IBL America, respectively). […] See, e.g., Novak et. al., Kidney International, 67, pp. 504-516; 2005; Novak et. al., Nephrol. Dial. Transplant, 26, pp. 3451-3457; 2011; Liang et. al., Cell Physiol. Biochem., 36, pp. 1793-1808; 2015; Nguyen et. al., Clin. Kidney 1, 12 (2), pp, 232-238; 2019.
compound,measurement,setting,value
"CCCCN(CCCC)C(=O)CN1C[C@H](c2ccc3c(c2)OCO3)[C@@H](C(=O)O)[C@@H]1c1ccc(OC)cc1 [Atrasentan, (2R,3R,4S)-4-(1,3-benzodioxol-5-yl)-1-[2-(dibutylamino)-2-oxoethyl]-2-(4-methoxyphenyl)pyrrolidine-3-carboxylic acid]",basal cell proliferation in HRMCs,IgA containing serum fractions from healthy controls,no effect
same,proliferation of HRMCs induced by IgA containing immune complexes from patients with IgA nephropathy,"immune complexes from three separate IgAN patients, BrdU",reduces the proliferation; also recorded: significantly attenuated the hyperproliferation
